From patent publication US7611721B1, “Adjuvant combination formulations” (priority 2000, dated 2009)
Where “and” joins values, the source holds several entries; their conditions need not be identical. Identical values can stand only once.

Experiments:
[1] = system: P815 cells pulsed with HIVMN CTL epitope peptide; assay: CTL analysis of spleen cells (chromium release); assay type: cell-based; details: separate experiments; Balb/c mice immunized with peptide
Method: FIG. 5 depicts the CTL activity of spleen cells isolated from mice seven days after secondary immunization. Spleen cells were harvested from groups of three Balb/c mice immunized on days 0 and 21 with 50 μg T1SP10MN(A) […] formulated with 50 μg MPL™ in 1% SE with or without 10 μg GM-CSF. Cells were cultured with the HIVMN CTL epitope peptide for seven days. IL-2 was added to the cultures for the last five days. Effector spleen cells were added to chromium-labelled P815 cells pulsed with HIVMN, another strain designated HIVIIIB or no peptide at the indicated ratios. Percent CTL activity was calculated as: […]
The protocols of Experiment 6 were followed regarding immunization of mice. The CTL activity of spleen cells isolated from mice seven days after secondary immunization was assessed. MPL™ SE was formulated with 50 μg MPL™ in 1% SE, with or without 10 μg GM-CSF, plus 50 μg T1SP10MN(A) (+Cys).
For CTL analysis, spleen cells were removed from immunized mice 14 days after primary, and seven days after secondary immunization. A protocol previously described (34) was essentially followed. […] Percent CTL activity was calculated as the percentage of chromium release using ((specific chromium release−spontaneous chromium release)/(maximal chromium release−spontaneous chromium release))×100. Chromium release was assessed after a six hour incubation period. […]

spleen cells = assay: Spleen cell proliferation in response to RSV F protein; assay type: cell-based, Balb/c mice; details: Experiment 12; spleen cells 14 days post-secondary immunization; 2.5 μg/ml RSV F protein, 96 hours; normalized to ConA
Method: Spleen cells were harvested at 14 days post-secondary immunization and were established in culture at a density of 5×10^5 cells. Cells were cultured for a total of 96 hours. ^3H-thymidine was added to cultures for the last 18 hours. Data are presented as a proliferation index normalized to cells stimulated in culture with ConA ([mean cpm Antigen/mean cpm ConA]−[mean cpm medium/mean cpm ConA])×100. As a result, cells cultured in medium have a background proliferation of 0.

T1SP10MN(A) (+Cys) = assay: Reciprocal anti-T1SP10MN(A) (+Cys) serum IgG and subclass endpoint titers, Balb/c mice; assay type: in vivo; details: n=3 Balb/c
Text: The protocols of Experiment 2 were followed, except that the HIV peptide contained a cysteine at amino acid position 17, and the mice (n=3 Balb/c) were immunized subcutaneously on days 0 and 21, and bled for serological evaluation on days −1 (the day before first immunization), 13, 20 and 28. […] The HIV peptide T1SP10MN(A) (+Cys) (26) contains a cysteine at amino acid position 17 and is 40 residues long. T1SP10MN(A) (+Cys) was purchased from Genosys Biotechnologies (The Woodlands, Tex.).
Reciprocal anti-T1SP10MN(A) IgG endpoint titers were measured from individual mice and their geometric means (n=3 Balb/c) 28 days after initial immunization.
The protocols of Experiment 6 were followed, except that mice (n=3 Balb/c) were immunized subcutaneously on days 0 and 32, and bled for serological evaluation on day 38.
Reciprocal anti-T1SP10MN(A) (+Cys) IgG endpoint titers were measured from individual mice and their geometric means (n=3 Balb/c) 38 days after initial immunization.

[2] = Experiment 6, immunized days 0 and 21, day 28
[3] = Experiment 7, immunized days 0 and 32, day 38

3-O-deacylated monophosphoryl lipid A [MPL ™]
Peptide-specific CTL responses [1]: < 30%
Normalized Proliferation Index (spleen cells): 0.4
Anti-HIV Peptide (+Cys) IgG1 GMT (T1SP10MN(A) (+Cys); [2]): 84,978
Anti-HIV Peptide (+Cys) IgG1 endpoint titer, individual mice (T1SP10MN(A) (+Cys); [2]): 23,249 and 155,199 and 170,071
Anti-HIV Peptide (+Cys) IgG2a GMT (T1SP10MN(A) (+Cys); [2]): 2,859
Anti-HIV Peptide (+Cys) IgG2a endpoint titer, individual mice (T1SP10MN(A) (+Cys); [2]): 500 and 1,628 and 28,722
Anti-HIV Peptide (+Cys) IgG2b GMT (T1SP10MN(A) (+Cys); [2]): 2,906
Anti-HIV Peptide (+Cys) IgG2b endpoint titer, individual mice (T1SP10MN(A) (+Cys); [2]): 500 and 1,102 and 44,531
Anti-HIV Peptide (+Cys) IgG GMT (T1SP10MN(A) (+Cys); [2]): 350,486
Anti-HIV Peptide (+Cys) IgG endpoint titer, individual mice (T1SP10MN(A) (+Cys); [2]): 91,728 and 529,663 and 886,156
Anti-HIV Peptide (+Cys) IgG1 GMT (T1SP10MN(A) (+Cys); [3]): 115,544
Anti-HIV Peptide (+Cys) IgG1 endpoint titer, individual mice (T1SP10MN(A) (+Cys); [3]): 148,818 and 90,380 and 114,686
Anti-HIV Peptide (+Cys) IgG2a GMT (T1SP10MN(A) (+Cys); [3]): 3,429
Anti-HIV Peptide (+Cys) IgG2a endpoint titer, individual mice (T1SP10MN(A) (+Cys); [3]): 11,874 and 1,674 and 2,028
Anti-HIV Peptide (+Cys) IgG2b GMT (T1SP10MN(A) (+Cys); [3]): 4,980
Anti-HIV Peptide (+Cys) IgG2b endpoint titer, individual mice (T1SP10MN(A) (+Cys); [3]): 9,685 and 3,605 and 3,538
Anti-HIV Peptide (+Cys) IgG GMT (T1SP10MN(A) (+Cys); [3]): 442,259
Anti-HIV Peptide (+Cys) IgG endpoint titer, individual mice (T1SP10MN(A) (+Cys); [3]): 404,755 and 446,952 and 478,163
